The values below come from ChEMBL document CHEMBL6182949 (J Med Chem, 2025).

Molecules are shown by their SMILES. Active and inactive are the calls of the source. No cut-off for these calls is given here.

For data set [1], the target named is T1, Protein cereblon/Interleukin-1 receptor-associated kinase 4 (Homo sapiens, UniProt Q9NWZ3+Q96SW2). Description: PROTAC activity at CRBN/IRAK4 in human THP-1 cells assessed as induction of IRAK4 degradation incubated for 24 hrs by HiBiT lytic reagent based analysis relative to control. Format: cell-based. A general note: With HiBiT, luminescence reflects the tagged protein that the partner subunit can reach.
Target sequence in this assay (Q96SW2 whole entry, looked up): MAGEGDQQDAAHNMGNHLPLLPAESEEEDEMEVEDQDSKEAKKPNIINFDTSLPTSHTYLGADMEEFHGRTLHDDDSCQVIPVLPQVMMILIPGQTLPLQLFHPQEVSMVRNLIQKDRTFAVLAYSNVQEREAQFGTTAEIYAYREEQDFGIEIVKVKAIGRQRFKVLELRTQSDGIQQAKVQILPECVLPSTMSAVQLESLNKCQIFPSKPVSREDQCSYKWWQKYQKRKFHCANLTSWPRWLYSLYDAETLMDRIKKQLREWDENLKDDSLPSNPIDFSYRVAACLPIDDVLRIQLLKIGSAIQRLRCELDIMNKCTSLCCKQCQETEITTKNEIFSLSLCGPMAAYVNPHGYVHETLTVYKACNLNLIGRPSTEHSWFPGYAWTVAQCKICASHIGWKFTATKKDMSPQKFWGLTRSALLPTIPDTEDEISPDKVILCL
Target sequence in this assay (Q9NWZ3 whole entry, looked up): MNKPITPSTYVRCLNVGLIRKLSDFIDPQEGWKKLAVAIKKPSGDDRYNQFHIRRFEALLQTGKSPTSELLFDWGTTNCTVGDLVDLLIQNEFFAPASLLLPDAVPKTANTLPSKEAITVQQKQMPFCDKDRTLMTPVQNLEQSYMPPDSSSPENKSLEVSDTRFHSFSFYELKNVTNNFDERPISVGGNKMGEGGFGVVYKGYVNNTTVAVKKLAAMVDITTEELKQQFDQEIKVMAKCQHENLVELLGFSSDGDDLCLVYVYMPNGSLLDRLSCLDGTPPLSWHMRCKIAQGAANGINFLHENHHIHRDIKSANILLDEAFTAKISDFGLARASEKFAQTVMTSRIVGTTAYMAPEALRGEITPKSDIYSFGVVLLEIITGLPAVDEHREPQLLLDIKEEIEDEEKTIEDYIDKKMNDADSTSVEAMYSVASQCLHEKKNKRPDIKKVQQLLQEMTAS

In data set [2] the target is T2, CYP2B6 (Homo sapiens, UniProt P20813).
T2 sequence (P20813 whole entry): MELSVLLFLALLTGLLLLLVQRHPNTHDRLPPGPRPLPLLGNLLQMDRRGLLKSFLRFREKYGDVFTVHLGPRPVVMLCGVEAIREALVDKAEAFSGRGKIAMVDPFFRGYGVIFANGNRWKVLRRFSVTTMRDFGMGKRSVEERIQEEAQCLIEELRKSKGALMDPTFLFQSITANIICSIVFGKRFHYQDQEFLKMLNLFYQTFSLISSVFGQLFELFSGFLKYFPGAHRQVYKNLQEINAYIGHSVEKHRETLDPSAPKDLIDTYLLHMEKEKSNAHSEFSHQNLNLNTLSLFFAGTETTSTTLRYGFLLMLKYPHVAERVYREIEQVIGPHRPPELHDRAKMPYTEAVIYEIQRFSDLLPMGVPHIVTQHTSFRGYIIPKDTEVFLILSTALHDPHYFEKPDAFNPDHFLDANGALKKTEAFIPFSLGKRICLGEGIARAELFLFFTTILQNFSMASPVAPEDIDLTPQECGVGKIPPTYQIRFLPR
Description: Inhibition of CYP2B6 in human liver microsome using bupropion as substrate at 10 uM preincubated for 5 mins followed by NADPH addition and measured after 10 mins by LC-MS/MS analysis relative to control. Format: ADME. To be noted: human liver microsomes, probe bupropion, time 15 min. On the technique in general: Microsomes from liver hold many membrane-bound enzymes, among them those of drug oxidation.

The target in data set [3] is T1, Protein cereblon/Interleukin-1 receptor-associated kinase 4. Description: PROTAC activity at CRBN/IRAK4 in human PBMC cells assessed as induction of IRAK4 degradation incubated for 24 hrs by HiBiT lytic reagent based analysis. The format is cell-based.
Target sequence in this assay (Q9NWZ3 whole entry): as the sequence (Q9NWZ3 whole entry, looked up) above
Target sequence in this assay (Q96SW2 whole entry): as the sequence (Q96SW2 whole entry, looked up) above
For data set [4], the target named is Protein cereblon/Interleukin-1 receptor-associated kinase 4 (Mus musculus) (UniProt Q8C7D2+Q8R4K2). Description: PROTAC activity at CRBN/IRAK4 in mouse PBMC cells assessed as induction of IRAK4 degradation incubated for 24 hrs by HiBiT lytic reagent based analysis relative to control. The format is cell-based.
Data set [5] addresses Protein cereblon/Sal-like protein 4 (Homo sapiens) (UniProt Q96SW2+Q9UJQ4). The experiment in a line: PROTAC activity at CRBN/SALL4 in human PBMC cells assessed as induction of SALL4 degradation at 1 uM by Western blot analysis. Format: cell-based. (In western blotting, separated proteins are transferred to a membrane and probed.)
For data set [6], the target named is Cereblon/Ikaros (Homo sapiens) (UniProt Q96SW2+Q13422). Description: PROTAC activity at CRBN/IKZF1 in human PBMC cells assessed as induction of SALL4 degradation at 1 uM by Western blot analysis. The format is cell-based.

Protein cereblon/Interleukin-1 receptor-associated kinase 4 (Mus musculus), sequence (Q8C7D2 whole entry, looked up): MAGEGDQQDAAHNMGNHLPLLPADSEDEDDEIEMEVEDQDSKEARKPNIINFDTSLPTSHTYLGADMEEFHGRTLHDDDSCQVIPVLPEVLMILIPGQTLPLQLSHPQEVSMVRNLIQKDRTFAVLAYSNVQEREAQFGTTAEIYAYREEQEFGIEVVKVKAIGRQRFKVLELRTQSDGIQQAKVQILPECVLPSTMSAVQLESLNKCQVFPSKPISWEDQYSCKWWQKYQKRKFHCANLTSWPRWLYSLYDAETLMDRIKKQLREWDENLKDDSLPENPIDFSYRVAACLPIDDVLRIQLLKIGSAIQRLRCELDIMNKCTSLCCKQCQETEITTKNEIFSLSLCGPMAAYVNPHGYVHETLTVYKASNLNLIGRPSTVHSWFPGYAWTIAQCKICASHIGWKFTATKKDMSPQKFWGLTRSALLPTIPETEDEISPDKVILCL
Protein cereblon/Interleukin-1 receptor-associated kinase 4 (Mus musculus), sequence (Q8R4K2 whole entry, looked up): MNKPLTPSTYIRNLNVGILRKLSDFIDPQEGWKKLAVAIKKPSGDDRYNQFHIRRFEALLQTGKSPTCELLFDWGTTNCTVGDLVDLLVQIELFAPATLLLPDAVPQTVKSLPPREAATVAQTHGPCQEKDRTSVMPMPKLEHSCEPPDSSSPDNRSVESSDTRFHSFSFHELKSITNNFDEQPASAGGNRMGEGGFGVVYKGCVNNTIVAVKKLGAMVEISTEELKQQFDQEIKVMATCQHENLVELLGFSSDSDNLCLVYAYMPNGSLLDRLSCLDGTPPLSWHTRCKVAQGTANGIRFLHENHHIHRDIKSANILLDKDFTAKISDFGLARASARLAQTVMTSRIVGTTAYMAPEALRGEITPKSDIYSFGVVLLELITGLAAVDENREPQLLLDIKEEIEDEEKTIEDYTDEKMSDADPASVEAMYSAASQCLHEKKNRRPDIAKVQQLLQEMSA
Protein cereblon/Sal-like protein 4 (Homo sapiens), sequence (Q96SW2 whole entry, looked up): as the sequence (Q96SW2 whole entry, looked up) above
Protein cereblon/Sal-like protein 4 (Homo sapiens), sequence (Q9UJQ4 whole entry, looked up): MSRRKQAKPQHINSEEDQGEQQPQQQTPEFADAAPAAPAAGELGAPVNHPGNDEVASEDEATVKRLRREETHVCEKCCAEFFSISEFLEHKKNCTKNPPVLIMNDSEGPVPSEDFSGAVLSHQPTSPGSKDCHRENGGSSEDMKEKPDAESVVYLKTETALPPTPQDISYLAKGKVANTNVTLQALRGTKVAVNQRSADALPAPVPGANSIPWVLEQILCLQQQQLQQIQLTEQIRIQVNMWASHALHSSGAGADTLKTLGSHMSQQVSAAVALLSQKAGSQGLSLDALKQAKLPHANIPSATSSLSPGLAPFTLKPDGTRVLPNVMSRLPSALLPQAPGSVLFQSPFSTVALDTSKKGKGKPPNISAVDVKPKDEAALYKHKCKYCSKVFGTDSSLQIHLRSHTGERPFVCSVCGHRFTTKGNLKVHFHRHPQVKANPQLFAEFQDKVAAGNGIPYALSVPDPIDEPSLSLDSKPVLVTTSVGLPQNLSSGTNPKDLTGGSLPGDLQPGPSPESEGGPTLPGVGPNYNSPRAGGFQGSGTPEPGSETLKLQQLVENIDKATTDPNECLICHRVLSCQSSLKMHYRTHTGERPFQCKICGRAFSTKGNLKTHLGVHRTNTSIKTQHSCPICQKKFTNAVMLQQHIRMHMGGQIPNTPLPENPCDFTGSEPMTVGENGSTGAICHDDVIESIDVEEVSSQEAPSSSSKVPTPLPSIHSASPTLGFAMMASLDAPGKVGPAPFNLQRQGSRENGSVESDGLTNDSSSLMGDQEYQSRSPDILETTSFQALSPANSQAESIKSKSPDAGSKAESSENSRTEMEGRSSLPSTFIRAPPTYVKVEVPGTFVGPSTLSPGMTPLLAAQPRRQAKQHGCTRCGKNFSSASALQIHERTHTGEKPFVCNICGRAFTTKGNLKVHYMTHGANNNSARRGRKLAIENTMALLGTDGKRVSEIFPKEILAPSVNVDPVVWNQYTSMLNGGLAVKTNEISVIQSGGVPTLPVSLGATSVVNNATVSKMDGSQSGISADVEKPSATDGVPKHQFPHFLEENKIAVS

The Emax is the maximal effect, on the per cent scale that the assay sets. The inhibition is how much of the control response was suppressed. The low end stands for a weak effect, the high end for a strong effect. The term DC50 denotes the concentration at which degradation of the target reaches its halfway point. `Cn1c(=O)n(C2CCC(=O)NC2=O)c2cccc(C#CCO[C@H]3CC[C@H](CN4CCC5(CC4)Cc4cc(NC(=O)c6coc7cccnc67)c(N6CCC(CO)CC6)cc4O5)CC3)c21` (stereo partly specified): the Emax in data set [1] was found to be 94%; in data set [4], 82%. The compound further came in with an inhibition at 10 min, 10 µM in data set [2] of 0.13%. In addition, in data set [3], the 50% degradation concentration (DC50) was 0.43 nM. The result in data set [5] and in data set [6] was inactive.
